These results are taken from the NIST ThermoML archive (doi:10.1021/acs.jced.8b00678).

Broadly, the refractive index is the speed of light in vacuum divided by its phase velocity in the sample.

Values joined by “and” are separate entries in the source; they are usually repeats but may differ in a detail not shown here. Equal entries are not always repeated. ± gives the expanded uncertainty stated by the source.

The nature of this series: refractive index (Na D-line) (dimensionless); wn = mass fraction of the nth substance listed. Particulars: 298.15 K; 84.5 kPa; Liquid; Standard Abbe refractometry; w1 = 0.02.

Turning to `CCCCn1cc[n+](C)c1.F[B-](F)(F)F` [1-butyl-3-methylimidazolium tetrafluoroborate] + O, the refractive index was 1.3339 ± 0.00055 and 1.33393 ± 0.00055 and 1.33391 ± 0.00055. Under `O=C(CO)[C@@H](O)[C@H](O)[C@H](O)CO` [D-fructose] + O stands 1.33525 ± 0.00055; under `O=C[C@H](O)[C@@H](O)[C@H](O)[C@H](O)CO` [D-glucose] + O, 1.33529 ± 0.00055; under `OC[C@H]1O[C@@](CO)(O[C@H]2O[C@H](CO)[C@@H](O)[C@H](O)[C@H]2O)[C@@H](O)[C@@H]1O` [D-sucrose] + O, 1.33518 ± 0.00055.

Turning to `O=C[C@H](O)[C@@H](O)[C@@H](O)CO` [L-arabinose] + O, the refractive index is on record as 1.33523 ± 0.00055.
